The experiment deals with HepG2. In words: Anticancer activity against human HepG2 cells assessed as reduction in cell survival. The experiment is classed as functional, cell-based.
Usually IC50 stands for the concentration needed to halve the response being measured. Regarding `CCCCCCCCCCCCC/C=C/[C@@H](O)[C@H](CO)NC(=O)CCCCCCCCCCCCCCCCCCCCCCC`, the half-inhibitory concentration (IC50) was 189 µM. The result for `CCCCCCCC/C=C\CCCCCCCCCCCCCC(=O)N[C@@H](CO)[C@H](O)/C=C/CCCCCCCCCCCCC` reads more than 200 µM; that for `CCCCCCCCCCCCC/C=C/[C@@H](O)[C@H](CO)NC(=O)CCCCCCCCCCCCC/C=C\CCCCCCCC[n+]1ccccc1`, 1 µM; that for `CCCCCCCCCCCCC/C=C/[C@@H](O)[C@H](CO)NC(=O)CCCCCCCCCCCCCCCCCCCCCCC[n+]1ccccc1`, 9.9 µM.

The values are drawn from ChEMBL document CHEMBL5356970, “Syntheses of the ω-pyridinium-containing very-long-chain ceramides PyrCer(24:1(15Z)) and PyrCer(24:0) and their anticancer activity” (Bioorg Med Chem Lett, 2024).
